In this series the test system is rodent carcinogenicity bioassays, tumor incidence. Put plainly: CCRIS carcinogenicity studies. In a few lines: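 Archive of carcinogenicity, mutagenicity, tumor promotion and tumor inhibition results drawn from journals, NCI reports and other sources, expert-reviewed; covers 1985-2011 and is no longer updated.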

Each structure is given as a SMILES string. Activity calls are given as the source filed them. The rule behind the calls is not given here.

With `[Ni]=[Se]`, the carcinogen call (Species: RAT, Strain/Sex: F344/MALE, Route: INTRAMUSCULAR, Tumor Site: Type of Lesion: INJECTION SITE: SARCOMA) was “active; positive”.

`O=CNc1nc(-c2ccc([N+](=O)[O-])o2)cs1`: the carcinogen call by setting is: (Species: DOG, Route: ORAL, Tumor Site: Type of Lesion: URINARY BLADDER, GALL BLADDER) “active; positive”; (Species: MOUSE, Route: ORAL, Tumor Site: Type of Lesion: URINARY BLADDER) “active; positive”; (Species: MOUSE, Strain/Sex: CD-1/FEMALE, Route: ORAL, Dose: 0, 0.1% IN DIET FOR 36 WK (STUDY DURATION: 81 WK), Tumor Site: Type of Lesion: BLADDER: TRANSITIONAL CELL CARCINOMA, SPINDLE CELL TUMOR, SQUAMOUS CELL CARCINOMA) “active; positive”; (Species: MOUSE, Strain/Sex: CD-1/MALE, Route: ORAL, Dose: 0, 0.1% IN DIET FOR 40 WK (STUDY DURATION: 70 WK), Tumor Site: Type of Lesion: BLADDER: TRANSITIONAL CELL CARCINOMA, SPINDLE CELL TUMOR, SQUAMOUS CELL CARCINOMA) “active; positive”; (Species: RAT, Route: ORAL, Tumor Site: Type of Lesion: KIDNEY, MAMMARY GLAND) “active; positive”; (Species: RAT, Strain/Sex: F344/MALE, Route: ORAL, Dose: 0.001-0.2% IN DIET FOR 30 WK, Tumor Site: Type of Lesion: URINARY BLADDER: CARCINOMA) “active; positive”. The carcinogen call runs as follows: (Species: RAT, Strain/Sex: SPRAGUE-DAWLEY/FEMALE, Route: ORAL, Dose: 0, 0.188% IN DIET FOR 20 WK FOLLOWED BY CONTROL DIET FOR 20 WK (STUDY DURATION: 40 WK), Tumor Site: Type of Lesion: BLADDER: TRANSITIONAL CELL CARCINOMA) “active; positive”; (Species: RAT, Strain/Sex: SPRAGUE-DAWLEY/FEMALE, Route: ORAL, Dose: 0.188% IN DIET FOR 20 WK THEN BASAL DIET FOR 20 WK, Tumor Site: Type of Lesion: URINARY BLADDER: TRANSITIONAL CELL CARCINOMA) “active; positive”.

Regarding `c1ccc2c(c1)ccc1cc3ccc4ccccc4c3nc12`, the carcinogen call is “active; positive” (Species: MOUSE, Strain/Sex: CD-1/FEMALE, Route: INTRAPERITONEAL, Dose: 0, 175 NMOL (TOTAL DOSE) ADMINISTERED AS 1/7 OF DOSE WITHIN 24 HR AFTER BIRTH, 2/7 OF DOSE AT 8 D OLD, 4/7 OF DOSE AT 15, Tumor Site: Type of Lesion: LUNG: TUMOR) and “active; positive” (Species: MOUSE, Strain/Sex: CD-1/MALE, Route: INTRAPERITONEAL, Dose: 0, 175 NMOL (TOTAL DOSE) ADMINISTERED AS 1/7 OF DOSE WITHIN 24 HR AFTER BIRTH, 2/7 OF DOSE AT 8 D OLD, 4/7 OF DOSE AT 15, Tumor Site: Type of Lesion: LIVER: TUMOR, LUNG: TUMOR).

With `Nc1ccc2nc3ccccn3c2n1`, the carcinogen call is, setting by setting: (Species: MOUSE, Strain/Sex: CDF1/FEMALE, Route: ORAL, Dose: 0, 0.05% IN DIET FOR UP TO 685 D (STUDY DURATION: 685 D), Tumor Site: Type of Lesion: LIVER: HEPATOCELLULAR ADENOMA OR CARCINOMA, BLOOD VESSELS: HEMANGIOENDOTHELIOMA OR HEMANGIOENDOTHELIAL SARCOMA) “active; positive”; (Species: MOUSE, Strain/Sex: CDF1/MALE, Route: ORAL, Dose: 0, 0.05% IN DIET FOR UP TO 685 D (STUDY DURATION: 685 D), Tumor Site: Type of Lesion: LIVER: HEPATOCELLULAR ADENOMA OR CARCINOMA, BLOOD VESSELS: HEMANGIOENDOTHELIOMA OR HEMANGIOENDOTHELIAL SARCOMA) “active; positive”; (Species: RAT, Strain/Sex: F344/FEMALE, Route: ORAL, Dose: 0, 500 PPM IN DIET (AV DAILY DOSE: 4.9 MG) FOR 24 MO (STUDY DURATION: 104 WK), Tumor Site: Type of Lesion: SMALL INTESTINE: ADENOMA OR ADENOCARCINOMA OR MUCINOUS CARCINOMA, LARGE INTESTINE: ADENOMA OR ADENOCARCINOMA OR MUCINOUS) “active; positive”; (Species: RAT, Strain/Sex: F344/MALE, Route: ORAL, Dose: 0, 500 PPM IN DIET (AV DAILY DOSE: 7.5 MG) FOR 24 MO (STUDY DURATION: 104 WK), Tumor Site: Type of Lesion: LIVER: HEPATOCELLULAR CARCINOMA OR ANAPLASTIC HEPATOMA, SMALL INTESTINE: ADENOMA OR ADENOCARCINOMA OR MUCINOUS CARCINOMA) “active; positive”.

`C[C@H](CCC(=O)N(CCS(=O)(=O)O)N=O)[C@H]1CCC2C3C(C[C@H](O)[C@@]21C)[C@@]1(C)CC[C@@H](O)C[C@H]1C[C@H]3O` (some centres not stated): where the note is “Species: RAT, Strain/Sex: F344/MALE, Route: GAVAGE, Dose: 0, 10 MG IN 50 µL DMSO 5 D/WK FOR 6 WK (STUDY DURATION: 108 WK), Tumor Site: Type of Lesion: LIVER: CARCINOMA”, the carcinogen call is “active; positive”.

As to `Oc1ccc2ccc3c4ccc5ccccc5c4c4c(c3c2c1O)O4`, the carcinogen call was “active; positive” (Species: MOUSE, Strain/Sex: ICR/FEMALE, Route: INTRAPERITONEAL, Dose: 0, 25 NMOL (TOTAL DOSE) ADMINISTERED IN DOSES OF 1/7, 2/7, AND 4/7 ON DAYS 1, 7, AND 15 OF LIFE, RESPECTIVELY (STUDY DUR, Tumor Site: Type of Lesion: LUNG: TUMOR); “active; positive” (Species: MOUSE, Strain/Sex: ICR/FEMALE, Route: INTRAPERITONEAL, Dose: 0, 25 NMOL TOTAL DOSE INJECTED IN DOSES OF 1/7 ON DAY 1, 2/7 ON DAY 8, AND 4/7 ON DAY 15 OF LIFE (STUDY DURATION: 35 WK), Tumor Site: Type of Lesion: LIVER: TUMOR, LUNG: TUMOR); “active; positive” (Species: MOUSE, Strain/Sex: ICR/MALE, Route: INTRAPERITONEAL, Dose: 0, 25 NMOL (TOTAL DOSE) ADMINISTERED IN DOSES OF 1/7, 2/7, AND 4/7 ON DAYS 1, 7, AND 15 OF LIFE, RESPECTIVELY (STUDY DUR, Tumor Site: Type of Lesion: LUNG: TUMOR, LIVER: TUMOR); “active; positive” (Species: MOUSE, Strain/Sex: ICR/MALE, Route: INTRAPERITONEAL, Dose: 0, 25 NMOL TOTAL DOSE INJECTED IN DOSES OF 1/7 ON DAY 1, 2.7 ON DAY 8, AND 4/7 ON DAY 15 OF LIFE (STUDY DURATION: 35 WK), Tumor Site: Type of Lesion: LUNG:TUMOR, LIVER: TUMOR); “active; positive” (Species: RAT, Strain/Sex: CD-1/FEMALE, Route: INJECTION, Dose: 0, 0.2 UMOL IN 0.1 ML DMSO INJECTED BENEATH EACH OF THE 6 NIPPLES ON THE LEFT SIDE (STUDY DURATION: 41 WK), Tumor Site: Type of Lesion: MAMMARY GLAND: TUMOR); “active; positive” (Species: RAT, Strain/Sex: STRAIN-CD/FEMALE, Route: INJECTION, Dose: 0, 0.2 UMOL IN 0.1 ML DMSO INJECTED UNDER EACH OF THE 3 LEFT THORACIC NIPPLES FOLLOWED THE NEXT DAY BY SIMILAR TREATMENT, Tumor Site: Type of Lesion: MAMMARY GLAND: TUMOR).

`O=C([O-])C(=O)[O-].O=C([O-])C(=O)[O-].[K+].[K+].[O]=[Ti+2]`: the carcinogen call is “inactive; negative” (Species: MOUSE, Strain/Sex: SWISS/FEMALE, Route: ORAL, Dose: 0, 5 PPM IN DRINKING WATER FOR DURATION OF STUDY (STUDY DURATION: LIFE SPAN)) and “inactive; negative” (Species: MOUSE, Strain/Sex: SWISS/MALE, Route: ORAL, Dose: 0, 5 PPM IN DRINKING WATER FOR DURATION OF STUDY (STUDY DURATION: LIFE SPAN)).

For `O=C1c2ccccc2C(=O)c2ccccc21`, the carcinogen call by setting is: (Species: MOUSE, Strain/Sex: B6C3F1/MALE, Route: DIET, Dose: 0, 833, 2500, 7500 PPM FOR 2 YR (STUDY DURATION: 2 YRS), Dose: 0, 833, 2500, 7500 PPM FOR 2 YR (STUDY DURATION: 2 YRS), Tumor Site: Type of Lesion: LIVER: HEPATOCELLULAR ADENOMA, CARCINOMA OR HEPATOBLASTOMA) “active; positive”; (Species: RAT, Strain/Sex: F344/N/MALE, Route: DIET, Dose: 0, 469, 938, 1875, 3750 PPM FOR 2 YRS (STUDY DURATION: 2YRS), Dose: 0, 469, 938, 1875, 3750 PPM FOR 2 YRS (STUDY DURATION: 2YRS), Tumor Site: Type of Lesion: KIDNEY: RENAL TUBULE ADENOMA OR CARCINOMA, LIVER: HEPATOCELLULAR ADENOMA) “active; positive”; (Species: RAT, Strain/Sex: F344/N/MALE, Route: DIET, Dose: 0, 469, 938, 1875, 3750 PPM FOR 2 YRS (STUDY DURATION: 2YRS), Dose: 0, 469, 938, 1875, 3750 PPM FOR 2 YRS (STUDY DURATION: 2YRS), Tumor Site: Type of Lesion: KIDNEY: RENAL TUBULE ADENOMA, BLADDER: PAPILLOMA) “active; positive; no true dose response, p values = 0.01 in these 2 cases; all others no”.

The record behind these values is PubChem BioAssay AID1259411 (Chemical Carcinogenesis Research Information System (CCRIS), 2018).
